The values that follow come from patent US20260234157A1, “COMPOUND AND METHOD FOR TARGETED DEGRADATION OF ANDROGEN RECEPTOR” (Gan & Lee Pharmaceuticals Co., Ltd., priority 2023, published 2026).

Numbering of substitutions follows the chain as printed.

The target in the first test is T1, AR protein (Homo sapiens, UniProt P10275, T878A).
T1 construct: degradation activity of the compounds disclosed in the present disclosure on AR protein in LNCaP cells; host or cells: LNCaP FGC
T1 sequence (P10275 1-920 T878A): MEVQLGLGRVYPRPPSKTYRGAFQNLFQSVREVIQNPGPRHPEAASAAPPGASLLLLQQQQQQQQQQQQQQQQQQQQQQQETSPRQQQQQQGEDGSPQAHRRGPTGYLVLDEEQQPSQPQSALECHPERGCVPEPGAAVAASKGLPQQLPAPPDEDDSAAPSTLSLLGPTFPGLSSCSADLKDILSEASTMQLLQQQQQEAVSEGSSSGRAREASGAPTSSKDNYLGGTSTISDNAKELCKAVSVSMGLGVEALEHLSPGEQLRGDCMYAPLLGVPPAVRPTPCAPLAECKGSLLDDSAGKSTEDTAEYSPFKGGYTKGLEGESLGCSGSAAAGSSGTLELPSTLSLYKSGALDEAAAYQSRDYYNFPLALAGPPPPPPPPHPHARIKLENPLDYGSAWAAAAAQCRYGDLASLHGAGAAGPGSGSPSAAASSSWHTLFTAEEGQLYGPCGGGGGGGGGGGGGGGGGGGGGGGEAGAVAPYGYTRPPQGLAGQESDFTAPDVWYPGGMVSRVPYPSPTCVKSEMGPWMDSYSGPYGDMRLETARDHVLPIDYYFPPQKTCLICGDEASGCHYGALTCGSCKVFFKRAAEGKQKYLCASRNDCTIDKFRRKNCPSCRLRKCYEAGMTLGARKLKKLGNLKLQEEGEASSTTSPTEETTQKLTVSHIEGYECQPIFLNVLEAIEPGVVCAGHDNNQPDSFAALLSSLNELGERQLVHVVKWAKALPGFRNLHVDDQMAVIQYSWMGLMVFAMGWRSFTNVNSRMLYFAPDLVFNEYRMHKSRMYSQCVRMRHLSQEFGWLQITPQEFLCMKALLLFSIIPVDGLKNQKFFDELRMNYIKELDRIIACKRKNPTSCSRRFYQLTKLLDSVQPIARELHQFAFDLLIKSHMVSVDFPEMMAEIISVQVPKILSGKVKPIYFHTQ
The test is described as follows: Degradation of AR protein in LNCaP cells (Western blot). Type of test: cell-based. Conditions: LNCaP cells, compound 10 nM, 8 hours, Western blot grayscale, GAPDH internal reference; read-out: Degradation rates of the AR protein in LNCaP cells, 10 nM (%). An outline of the steps: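 Percent AR degradation was derived from GAPDH-normalised Western blot band intensities (infrared detection) in LNCaP lysates.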
(In western blotting, separated proteins are transferred to a membrane and probed.)
Regarding `N#Cc1ccc(O[C@H]2CC[C@H](NC(=O)c3ccc(N4CCC(O)(CN5CCC6(CC5)COc5c6ccc6c5C(=O)N(C5CCC(=O)NC5=O)C6=O)CC4)nn3)CC2)cc1C(F)(F)F` (stereo partly drawn) [Compound 214], the inhibition at 0.01 µM was 40%.

Turning to `COc1cc(O[C@H]2CC[C@H](NC(=O)c3ccc(N4CCC(O)(CN5CCC6(CC5)COc5c6ccc6c5C(=O)N(C5CCC(=O)NC5=O)C6=O)CC4)nn3)CC2)ccc1C#N` (stereo partly drawn) [Compound 215], the inhibition at 0.01 µM was found to be 86%.

For the compound `COc1cc(O[C@H]2CC[C@H](NC(=O)c3cnc(N4CCC(CN5CCC6(CC5)COc5c6ccc6c5C(=O)N(C5CCC(=O)NC5=O)C6=O)(OC)CC4)nc3)CC2)ccc1C#N` (stereo partly drawn) [Compound 220], the inhibition at 0.01 µM was found to be 32%.

Still in this test, the particulars now being: LNCaP cells, compound 100 nM, 8 hours, Western blot grayscale, GAPDH internal reference; read-out: Degradation rates of the AR protein in LNCaP cells, 100 nM (%).
Consider `N#Cc1ccc(O[C@H]2CC[C@H](NC(=O)c3ccc(N4CCC(O)(CN5CCC6(CC5)COc5c6ccc6c5C(=O)N(C5CCC(=O)NC5=O)C6=O)CC4)nn3)CC2)cc1C(F)(F)F` (stereo partly drawn) [Compound 214], for which the inhibition at 0.1 µM stood at 68%.

For the compound `COc1cc(O[C@H]2CC[C@H](NC(=O)c3ccc(N4CCC(O)(CN5CCC6(CC5)COc5c6ccc6c5C(=O)N(C5CCC(=O)NC5=O)C6=O)CC4)nn3)CC2)ccc1C#N` (stereo partly drawn) [Compound 215], the inhibition at 0.1 µM came out at 91%.

For the compound `COc1cc(O[C@H]2CC[C@H](NC(=O)c3cnc(N4CCC(CN5CCC6(CC5)COc5c6ccc6c5C(=O)N(C5CCC(=O)NC5=O)C6=O)(OC)CC4)nc3)CC2)ccc1C#N` (stereo partly drawn) [Compound 220], the inhibition at 0.1 µM was 63%.

The target in the next test is T2, AR protein (Homo sapiens, UniProt P10275).
T2 construct: degradation activity of the compounds disclosed in the present disclosure on AR protein in VCaP cells; host or cells: VCaP
T2 sequence (P10275 1-920): T1 sequence (P10275 1-920 T878A) with A878T
The test is described as follows: Degradation of AR protein in VCaP cells (Western blot). It is filed as cell-based. Conditions: compound at 10 nM, 8 hours, read-out: Degradation rate of the AR protein in VCaP cells, 10 nM (%). An outline of the steps: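 Western blot readout: AR band grayscale normalised to GAPDH, used to derive degradation rate. Lysates came from VCaP cells exposed to compound for 8 h, with solvent controls run in parallel.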
As to `N#Cc1ccc(O[C@H]2CC[C@H](NC(=O)c3ccc(N4CCC(O)(CN5CCC6(CC5)COc5c6ccc6c5C(=O)N(C5CCC(=O)NC5=O)C6=O)CC4)nn3)CC2)cc1C(F)(F)F` (stereo partly drawn) [Compound 214], the inhibition at 0.01 µM was determined as 7%.

As for `COc1cc(O[C@H]2CC[C@H](NC(=O)c3ccc(N4CCC(O)(CN5CCC6(CC5)COc5c6ccc6c5C(=O)N(C5CCC(=O)NC5=O)C6=O)CC4)nn3)CC2)ccc1C#N` (stereo partly drawn) [Compound 215], the inhibition at 0.01 µM worked out at 63%.

Regarding `COc1cc(O[C@H]2CC[C@H](NC(=O)c3cnc(N4CCC(CN5CCC6(CC5)COc5c6ccc6c5C(=O)N(C5CCC(=O)NC5=O)C6=O)(OC)CC4)nc3)CC2)ccc1C#N` (stereo partly drawn) [Compound 220], the inhibition at 0.01 µM is 22%.

The same test, now with this note: compound at 100 nM, 8 hours, read-out: Degradation rate of the AR protein in VCaP cells, 100 nM (%).
On to `N#Cc1ccc(O[C@H]2CC[C@H](NC(=O)c3ccc(N4CCC(O)(CN5CCC6(CC5)COc5c6ccc6c5C(=O)N(C5CCC(=O)NC5=O)C6=O)CC4)nn3)CC2)cc1C(F)(F)F` (stereo partly drawn) [Compound 214], for which the inhibition at 0.1 µM was found to be 63%.

Consider `COc1cc(O[C@H]2CC[C@H](NC(=O)c3ccc(N4CCC(O)(CN5CCC6(CC5)COc5c6ccc6c5C(=O)N(C5CCC(=O)NC5=O)C6=O)CC4)nn3)CC2)ccc1C#N` (stereo partly drawn) [Compound 215], for which the inhibition at 0.1 µM was 82%.

`COc1cc(O[C@H]2CC[C@H](NC(=O)c3cnc(N4CCC(CN5CCC6(CC5)COc5c6ccc6c5C(=O)N(C5CCC(=O)NC5=O)C6=O)(OC)CC4)nc3)CC2)ccc1C#N` (stereo partly drawn) [Compound 220]: the inhibition at 0.1 µM turned out to be 78%.

In the next test the test system is LNCaP FGC cells. The test is described as follows: Inhibition of proliferation of LNCaP cells (WST-8). Conditions: Homo sapiens, LNCaP, 96 h, LNCaP FGC cells, 96 hours, WST-8 absorbance at 450 nm; read-out: IC50 for inhibiting the proliferation of LNCaP cells. It is filed as cell-based. On the procedure: The cells were cultured in a cell culture incubator with 5% CO2 at 37° C. overnight. […] On the sixth day, 96 well plates were taken out, and 20 μL of WST-8 (Beytime, C0040) reagent was added to each well.
`N#Cc1ccc(O[C@H]2CC[C@H](NC(=O)c3ccc(N4CCC(O)(CN5CCC6(CC5)COc5c6ccc6c5C(=O)N(C5CCC(=O)NC5=O)C6=O)CC4)nn3)CC2)cc1C(F)(F)F` (stereo partly drawn) [Compound 214]: the IC50 worked out at 3.78 µM.

Turning to `COc1cc(O[C@H]2CC[C@H](NC(=O)c3ccc(N4CCC(O)(CN5CCC6(CC5)COc5c6ccc6c5C(=O)N(C5CCC(=O)NC5=O)C6=O)CC4)nn3)CC2)ccc1C#N` (stereo partly drawn) [Compound 215], the IC50 stood at 0.22 µM.

Turning to `COc1cc(O[C@H]2CC[C@H](NC(=O)c3cnc(N4CCC(CN5CCC6(CC5)COc5c6ccc6c5C(=O)N(C5CCC(=O)NC5=O)C6=O)(OC)CC4)nc3)CC2)ccc1C#N` (stereo partly drawn) [Compound 220], the IC50 was 0.064 µM.

The subject of another test is VCaP cells. The experiment in a line: Inhibition of proliferation of VCaP cells (WST-8). Type of test: cell-based. Conditions: Homo sapiens; VCaP cells, 168 hours, WST-8 absorbance at 450 nm; read-out: IC50 for inhibiting the proliferation of VCaP cells. An outline of the steps: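 Proliferation was read by WST-8 on day nine. Cells were VCaP FGC, seeded at 15000 cells per well in 10% FBS DMEM and kept at 37° C with 5% CO2.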
Background: Formazan colour is commonly taken as a measure of viable cells.
Turning to `N#Cc1ccc(O[C@H]2CC[C@H](NC(=O)c3ccc(N4CCC(O)(CN5CCC6(CC5)COc5c6ccc6c5C(=O)N(C5CCC(=O)NC5=O)C6=O)CC4)nn3)CC2)cc1C(F)(F)F` (stereo partly drawn) [Compound 214], the IC50 was 0.048 µM.

Turning to `COc1cc(O[C@H]2CC[C@H](NC(=O)c3ccc(N4CCC(O)(CN5CCC6(CC5)COc5c6ccc6c5C(=O)N(C5CCC(=O)NC5=O)C6=O)CC4)nn3)CC2)ccc1C#N` (stereo partly drawn) [Compound 215], the IC50 amounted to 0.5 µM.

Regarding `COc1cc(O[C@H]2CC[C@H](NC(=O)c3cnc(N4CCC(CN5CCC6(CC5)COc5c6ccc6c5C(=O)N(C5CCC(=O)NC5=O)C6=O)(OC)CC4)nc3)CC2)ccc1C#N` (stereo partly drawn) [Compound 220], the IC50 was determined as 0.051 µM.
